Data on 6 molecules can be found in US8399442B2, “Pharmaceutical compounds” (priority 2005, dated 2013).

In general, inhibition refers to how much of the control response was suppressed. As usually defined, the solubility is the dissolved amount per volume that the medium holds. The low end stands for a poorly soluble substance, the high end for a readily soluble substance. For orientation: logP means the decadic logarithm of the partition coefficient of the neutral form, usually between octanol and water. Read a high logP as a more lipophilic compound. A word on the logD: it is lipophilicity at a set pH, counting ionised and neutral species. As usually defined, the melting point is the temperature, or range, at which the solid turns liquid.

Data set [1] deals with T1, Chk2 (Homo sapiens, UniProt O96017).
T1 construct: purchased Upstate Discovery Ltd
T1 sequence (O96017 whole entry): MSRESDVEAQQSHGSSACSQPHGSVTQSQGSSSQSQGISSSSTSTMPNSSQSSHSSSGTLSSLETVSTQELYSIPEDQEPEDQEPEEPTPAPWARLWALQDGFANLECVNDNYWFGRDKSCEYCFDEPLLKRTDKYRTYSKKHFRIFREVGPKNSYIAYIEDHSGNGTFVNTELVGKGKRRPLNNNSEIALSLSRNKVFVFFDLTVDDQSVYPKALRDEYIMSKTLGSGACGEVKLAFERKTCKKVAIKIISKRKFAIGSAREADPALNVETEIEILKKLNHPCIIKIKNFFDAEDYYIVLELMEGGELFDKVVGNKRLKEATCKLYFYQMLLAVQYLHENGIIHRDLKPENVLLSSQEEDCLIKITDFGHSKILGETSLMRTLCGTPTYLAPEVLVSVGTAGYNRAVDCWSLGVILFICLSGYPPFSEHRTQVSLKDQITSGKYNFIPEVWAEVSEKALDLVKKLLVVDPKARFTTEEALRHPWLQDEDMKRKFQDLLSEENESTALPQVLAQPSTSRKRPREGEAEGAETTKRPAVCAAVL
Kind of data set: Kinase inhibitory activity assay (Upstate, 33P-ATP). The note with it: read-out: Inhibition of kinases in vitro, % at 30 nM. The class given is biochemical. On the procedure:
Where inhibition was high an IC50 was determined.

For data set [2], the system named is primary human mammary epithelial cells. The note with it: 24 h.
Data set [3] in a line: physchem. The note with it: water.
Data set [4] in a line: physchem. The following applies: water, thermodynamic from solid.
Data set [5] is described as follows: Physicochemical parameters (pKa, logP, logD).

Structures can show the parent of a compound that is named as a salt. Bounds are passed on as bounds.

With `O=C(Nc1c[nH]nc1-c1nc2cc(CN3CCOCC3)ccc2[nH]1)NC1CC1` [compound of formula (I^0)], in data set [1], the inhibition at 0.03 µM came out at 41%. In data set [2], the “effect of treatment on normal cells cf. tumor cells” value was “fewer become multinucleated or die after treatment, but instead undergo reversible G2/M arrest”.
Consider `O=C(Nc1c[nH]nc1-c1nc2cc(CN3CCOCC3)ccc2[nH]1)NC1CC1` [Acetate], for which the results for the solubility in data set [3] (thermodynamic from solid) and in data set [4] were above 25 mg/mL and above 100 mg/mL, respectively.
For the molecule “1-(2,6-difluorophenyl)-N-[3-(5-morpholin-4-ylmethyl-1H-benzimidazol-2-yl)-1H-pyrazol-4-yl]-urea”, the logP in data set [5] stood at 3.24. Also, the logPion in data set [5] is 0.36. For the same molecule, the values for the logD in data set [5] (pH=6), in data set [5] (pH=6.5) and in data set [5] (pH=7.4) were 2.27, 2.68 and 3.11, respectively.
Turning to `O=C(Nc1c[nH]nc1-c1nc2cc(CN3CCOCC3)ccc2[nH]1)NC1CC1` [D-Glucuronate], the values for the solubility in data set [3] and in data set [4] were above 25 mg/mL and above 100 mg/mL, respectively. The molecule further gave a solubility at 20 h in data set [3] (thermodynamic from solid) above 50 mg/mL.
As to `O=C(Nc1c[nH]nc1-c1nc2cc(CN3CCOCC3)ccc2[nH]1)NC1CC1` [D-Gluconate], the solubility in data set [3] (thermodynamic from solid) was above 25 mg/mL.
For the molecule `O=C(Nc1c[nH]nc1-c1nc2cc(CN3CCOCC3)ccc2[nH]1)Nc1c(F)cccc1F` (as salt: hydrochloride) [1-(2,6-difluorophenyl)-N-[3-(5-morpholin-4-ylmethyl-1H-benzimidazol-2-yl)-1H-pyrazol-4-yl]-urea], the melting point came to 190 °C.
